In general, MIC refers to the smallest concentration in the dilution series that meets the test's criterion for growth inhibition.

Values after ≈ are worked out from the molar mass of the structure shown.

Holding throughout (type): functional
In assay [1] the test system is Cutibacterium acnes. Kind of assay: Antibacterial activity against Propionibacterium acnes by two-fold dilution method.
Assay [2] relates to Pseudomonas aeruginosa. Kind of assay: Antibacterial activity against Pseudomonas aeruginosa by two-fold dilution method.
In assay [3] the test system is Candida albicans. Kind of assay: […] activity against Candida albicans by two-fold dilution method. The settings on record: for MIC: Candida albicans.
Assay [4] relates to Staphylococcus aureus. Kind of assay: Antibacterial activity against Staphylococcus aureus by two-fold dilution method. The settings on record: for MIC: Staphylococcus aureus.
Assay [5] relates to Escherichia coli. Kind of assay: Antibacterial activity against Escherichia coli by two-fold dilution method.

For `COC(=O)CCC[C@@H]1[C@H]2CCCN3CCC[C@@H](CN1C(=O)c1cc4ccc(Cl)cc4n1Cc1ccc(Br)cc1)[C@@H]23`, the MIC came out at 0.121 µg/mL (≈ 0.193 µM) in assay [1]; 0.467 µg/mL (≈ 0.745 µM) in assay [2]; 13.7 µg/mL (≈ 21.9 µM) in assay [3]; 1.15 µg/mL (≈ 1.83 µM) in assay [4]; 0.762 µg/mL (≈ 1.22 µM) in assay [5]. Further, the -logMIC was -1.14 in assay [3] and 0.06 in assay [4].

Turning to `COC(=O)CCC[C@@H]1[C@H]2CCCN3CCC[C@@H](CN1C(=O)c1cc4ccccc4[nH]1)[C@@H]23`, the minimum inhibitory concentration (MIC) in assay [1] was 1.23 µg/mL (≈ 2.91 µM); in assay [2] it was 1.08 µg/mL (≈ 2.56 µM); in assay [3] it was 14.3 µg/mL (≈ 33.7 µM); in assay [4] it was 9.79 µg/mL (≈ 23.1 µM); in assay [5], 2.97 µg/mL (≈ 7.01 µM). The -logMIC was -1.16 in assay [3] and -0.991 in assay [4].

As for `COC(=O)CCC[C@@H]1[C@H]2CCCN3CCC[C@@H](CN1C(=O)c1cc4ccc(Cl)cc4n1Cc1ccc(F)cc1)[C@@H]23`, the MIC was 0.199 µg/mL (≈ 0.352 µM) in assay [1]; 0.806 µg/mL (≈ 1.42 µM) in assay [2]; 5.89 µg/mL (≈ 10.4 µM) in assay [3]; 0.923 µg/mL (≈ 1.63 µM) in assay [4]; 0.618 µg/mL (≈ 1.09 µM) in assay [5]. The -logMIC in assay [3] was -0.77; in assay [4] it was 0.035.

With `COC(=O)CCC[C@@H]1[C@H]2CCCN3CCC[C@@H](CN1C(=O)c1cc4ccc(Cl)cc4n1Cc1ccc(C(C)(C)C)cc1)[C@@H]23`, the MIC in assay [1] was 1.33 µg/mL (≈ 2.19 µM); in assay [2], 0.654 µg/mL (≈ 1.08 µM); in assay [3], 18.1 µg/mL (≈ 29.9 µM); in assay [4], 0.085 µg/mL (≈ 0.141 µM); in assay [5] it was 1.22 µg/mL (≈ 2.02 µM). For the same molecule, the -logMIC in assay [3] was -1.26; in assay [4], 1.071.

Turning to `COC(=O)CCC[C@@H]1[C@H]2CCCN3CCC[C@@H](CN1C(=O)c1cc4ccc(Cl)cc4n1Cc1ccc(-c4ccccc4)cc1)[C@@H]23`, the minimum inhibitory concentration (MIC) in assay [1] stood at 0.373 µg/mL (≈ 0.598 µM); in assay [2], 0.55 µg/mL (≈ 0.881 µM); in assay [3], 23.2 µg/mL (≈ 37.2 µM); in assay [4] it was 0.053 µg/mL (≈ 0.0849 µM); in assay [5] it was 1.16 µg/mL (≈ 1.86 µM). Further, the -logMIC in assay [3] was -1.37; in assay [4], 1.276.

Regarding `COC(=O)CCC[C@@H]1[C@H]2CCCN3CCC[C@@H](CN1C(=O)c1cc4ccc(Cl)cc4n1Cc1ccccc1C)[C@@H]23`, the MIC in assay [1] stood at 0.271 µg/mL (≈ 0.482 µM); in assay [2], 0.72 µg/mL (≈ 1.28 µM); in assay [3] it was 19.6 µg/mL (≈ 34.8 µM); in assay [4] it was 0.063 µg/mL (≈ 0.112 µM); in assay [5], 1.1 µg/mL (≈ 1.97 µM). Also, the results for the -logMIC in assay [3] and in assay [4] were -1.29 and 1.201, respectively.

As for `COC(=O)CCC[C@@H]1[C@H]2CCCN3CCC[C@@H](CN1C(=O)c1cc4ccc(Cl)cc4n1Cc1ccc([N+](=O)[O-])cc1)[C@@H]23`, the MIC in assay [1] stood at 0.053 µg/mL (≈ 0.0894 µM); in assay [2], 0.28 µg/mL (≈ 0.472 µM); in assay [3], 7.01 µg/mL (≈ 11.8 µM); in assay [4], 0.18 µg/mL (≈ 0.303 µM); in assay [5], 0.523 µg/mL (≈ 0.882 µM). The -logMIC in assay [3] is -0.846; in assay [4], 0.745.

On to `COC(=O)CCC[C@@H]1[C@H]2CCCN3CCC[C@@H](CN1C(=O)c1cc4ccc(Cl)cc4n1Cc1ccc(OC)cc1)[C@@H]23`, for which the MIC came to 0.404 µg/mL (≈ 0.699 µM) in assay [1]; 0.627 µg/mL (≈ 1.08 µM) in assay [2]; 8.04 µg/mL (≈ 13.9 µM) in assay [3]; 0.354 µg/mL (≈ 0.612 µM) in assay [4]; 0.775 µg/mL (≈ 1.34 µM) in assay [5]. The -logMIC in assay [3] is -0.905; in assay [4] it was 0.451.

`COC(=O)CCC[C@@H]1[C@H]2CCCN3CCC[C@@H](CN1C(=O)c1cc4ccc(Cl)cc4n1Cc1ccc4ccccc4c1)[C@@H]23`: the MIC in assay [1] came to 0.175 µg/mL (≈ 0.293 µM); in assay [2], 0.42 µg/mL (≈ 0.702 µM); in assay [3] it was 12.2 µg/mL (≈ 20.4 µM); in assay [4] it was 0.065 µg/mL (≈ 0.109 µM); in assay [5], 0.892 µg/mL (≈ 1.49 µM). Moreover, the -logMIC is -1.09 in assay [3] and 1.187 in assay [4].

As to `COC(=O)CCC[C@@H]1[C@H]2CCCN3CCC[C@@H](CN1C(=O)c1cc4ccc(Cl)cc4[nH]1)[C@@H]23`, the MIC in assay [1] was 0.636 µg/mL (≈ 1.39 µM); in assay [2], 0.661 µg/mL (≈ 1.44 µM); in assay [3], 6.59 µg/mL (≈ 14.4 µM); in assay [4], 1.61 µg/mL (≈ 3.52 µM); in assay [5], 2.55 µg/mL (≈ 5.57 µM). Also, the -logMIC was -0.819 in assay [3] and 0.207 in assay [4].

For `COC(=O)CCC[C@@H]1[C@H]2CCCN3CCC[C@@H](CN1C(=O)c1cc4ccc(Cl)cc4n1Cc1c(Cl)cccc1Cl)[C@@H]23`, the MIC in assay [1] stood at 0.203 µg/mL (≈ 0.329 µM); in assay [2], 0.207 µg/mL (≈ 0.335 µM); in assay [3] it was 6.81 µg/mL (≈ 11 µM); in assay [4], 0.164 µg/mL (≈ 0.266 µM); in assay [5] it was 0.82 µg/mL (≈ 1.33 µM). The -logMIC in assay [3] is -0.833; in assay [4], 0.785.

`COC(=O)CCC[C@@H]1[C@H]2CCCN3CCC[C@@H](CN1C(=O)c1cc4ccc(Cl)cc4n1Cc1ccc(Cl)cc1)[C@@H]23`: the MIC in assay [1] worked out at 0.246 µg/mL (≈ 0.422 µM); in assay [2], 0.633 µg/mL (≈ 1.09 µM); in assay [3] it was 13.5 µg/mL (≈ 23.1 µM); in assay [4], 0.186 µg/mL (≈ 0.319 µM); in assay [5], 0.812 µg/mL (≈ 1.39 µM). Also, the -logMIC in assay [3] was -1.13; in assay [4], 0.73.

As for `COC(=O)CCC[C@@H]1[C@H]2CCCN3CCC[C@@H](CN1C(=O)c1cc4ccc(Cl)cc4n1Cc1ccc(C)cc1)[C@@H]23`, the minimal inhibitory concentration (MIC) in assay [1] worked out at 0.508 µg/mL (≈ 0.904 µM); in assay [2], 0.773 µg/mL (≈ 1.38 µM); in assay [3], 8.08 µg/mL (≈ 14.4 µM); in assay [4], 1.66 µg/mL (≈ 2.96 µM); in assay [5] it was 1.09 µg/mL (≈ 1.93 µM). Further, the -logMIC in assay [3] is -0.907; in assay [4], 0.221.

On to `COC(=O)CCC[C@@H]1[C@H]2CCCN3CCC[C@@H](CN1C(=O)c1cc4ccc(Cl)cc4n1Cc1cccc4ccccc14)[C@@H]23`, for which the minimum inhibitory concentration (MIC) in assay [1] stood at 0.14 µg/mL (≈ 0.234 µM); in assay [2] it was 0.534 µg/mL (≈ 0.893 µM); in assay [3] it was 12.1 µg/mL (≈ 20.2 µM); in assay [4] it was 0.303 µg/mL (≈ 0.507 µM); in assay [5], 0.649 µg/mL (≈ 1.08 µM). The -logMIC in assay [3] was -1.08; in assay [4] it was 0.519.

Regarding `COC(=O)CCC[C@@H]1[C@H]2CCCN3CCC[C@@H](CN1C(=O)c1cc4ccc(Cl)cc4n1Cc1cccc(C)c1)[C@@H]23`, the MIC in assay [1] stood at 0.305 µg/mL (≈ 0.543 µM); in assay [2] it was 0.536 µg/mL (≈ 0.953 µM); in assay [3], 11.6 µg/mL (≈ 20.6 µM); in assay [4], 0.271 µg/mL (≈ 0.482 µM); in assay [5] it was 1.3 µg/mL (≈ 2.31 µM). Besides, the values for the -logMIC in assay [3] and in assay [4] were -1.06 and 0.567, respectively.

In turn, `CC(C)(O/N=C(\C(=O)N[C@@H]1C(=O)N2C(C(=O)[O-])=C(C[n+]3ccccc3)CS[C@H]12)c1csc(N)n1)C(=O)O` [CEFTAZIDIME] had an MIC in assay [2] of 0.042 µg/mL (≈ 0.0768 µM).

For `C[C@H]1c2cccc(O)c2C(=O)C2=C(O)[C@]3(O)C(=O)C(C(N)=O)=C(O)[C@@H](N(C)C)[C@@H]3[C@@H](O)[C@@H]21.Cl` [DOXYCYCLINE HYDROCHLORIDE], the lowest concentration to inhibit growth in assay [1] (MIC) was 0.023 µg/mL.

`OC(Cn1cncn1)(Cn1cncn1)c1ccc(F)cc1F` [FLUCONAZOLE] showed an MIC in assay [3] of 4.85 µg/mL (≈ 15.8 µM).

Consider `NC[C@H]1O[C@H](O[C@H]2[C@H](O)[C@@H](O[C@H]3O[C@H](CO)[C@@H](O)[C@H](N)[C@H]3O)[C@H](N)C[C@@H]2N)[C@H](O)[C@@H](O)[C@@H]1O.O=S(=O)(O)O` [KANAMYCIN SULFATE], for which 0.052 µg/mL was the least that counted as inhibitory in assay [5] (MIC).

In the case of `CC1(C)S[C@@H]2[C@H](NC(=O)Cc3ccccc3)C(=O)N2[C@H]1C(=O)[O-].[Na+]` [PENICILLIN G SODIUM], the minimum inhibitory concentration (MIC) in assay [4] was determined as 0.037 µg/mL.

Values taken from ChEMBL document CHEMBL5579805, “Synthesis, antibacterial activity, and 3D-QASR studies of matrine-indole derivatives as potential antibiotics” (2024).
